{"source": "patent EP4778522A1", "about": "“USE OF PYRROLOPYRIMIDINE COMPOUND AND COMPOSITION THEREOF” (Guangzhou Joyo Pharmatech Co., Ltd., priority 2023, dated 2025)", "key": {"[1]": {"test_system": "FITC-induced mouse atopic dermatitis model", "experiment": "FITC-induced mouse atopic dermatitis model: histopathological scoring of ears", "format": "in vivo, Balb/c mice", "details": "pathological score (0-4), right ear, day 13, 20 mg/dose topical twice a day", "from_the_text": "On day 13, all the experimental animals were euthanized by CO2 and cervical dislocation, and then the right ears were collected and fixed in 10% formalin for histopathological analysis.\nAfter the ear tissues were embedded with paraffin, each ear tissue was sliced into 3-5 µm sections. After HE staining, the sections were subjected to routine histopathological evaluation and ear tissue thickness measurement. Table 4 Histopathological scoring criteria"}, "[2]": {"test_system": "monobenzone-induced mouse vitiligo model", "experiment": "Monobenzone-induced mouse vitiligo model: hair depigmentation area scoring", "format": "in vivo, C57BL/6 mice", "set-up": "Hair depigmentation area scoring: scale not given here", "experimental": "• 1) Animals: C57BL/6 mice, specific pathogen-free (SPF), with equal numbers of females and males. The mice were 6-8 weeks old at grouping, with 10 mice per group. The animals were provided by Charles River Laboratories. • 2) Reagents, positive drugs and test drugs\nMonobenzone induction method: after 1 week of adaptive feeding of all the animals, modeling was performed and all black hairs on the back of the mice were removed by a shaver. 10 animals were randomly selected as a normal control group and applied with 50 mg of vaseline once a day; and the remaining 80 animals were used for modeling and applied with 50 mg of 40% monobenzone depigmentation ointment once a day. The applying area of the normal control group and the model group was 2 cm*3 cm of the fixed part of the back, and the modeling was continuously performed for 103 days. In order to prevent the phenomenon that the animals lick the drugs, after the animals were applied with a modeling agent, they needed to be separately placed in an independent cage without padding for a period of time to naturally dry the modeling agent, and then they were placed in a rearing cage for normal rearing. During the modeling process, new hairs grown in the alopecic areas of the backs of the mice were shaved by the shaver and then applied with the drug.\nThe 40% monobenzone depigmentation ointment was applied every day. After modeling for 53 days, according to a depigmentation area score (see scoring criteria of Table 9), 70 animals successfully modeled in modeling group (score ≥ 2) were randomly divided into 7 groups with 10 mice per group. The mean depigmentation area score of the animals in each group was basically consistent before the administration, and the day of grouping was defined as day 0 of the administration treatment period. Table 8 Grouping and administration regimen\nDuring the whole experiment process, the mice in normal control group (G1) were applied with 50 mg of vaseline once a day; and the mice in each model group (G2-G8) were applied with 50 mg of 40% monobenzone ointment once a day. After modeling for 53 days, the mice were grouped and subjected to drug treatment after grouping consecutively for 50 days. The modeling operation was maintained during the drug intervention period. The mice were applied with the drug twice a day for treatment at an interval of 6 hours or more. […]"}, "[3]": {"test_system": "monobenzone-induced mouse vitiligo model", "experiment": "Monobenzone-induced mouse vitiligo model: skin pathological analysis of melanin-containing hair follicles", "format": "in vivo, C57BL/6 mice", "details": "for Number of melanin-containing hair follicles / Proportion of melanin-containing hair follicles (%): 30 mg topical twice a day for 50 days", "experimental": "The mice were euthanized within 2-4 hours after the last administration, and approximately 1 cm^2 of the skin in the center of the depilated part of the mice was taken and fixed with 4% paraformaldehyde. The animal skin tissues were fixed with 4% paraformaldehyde, dehydrated, embedded with paraffin, sectioned and then subjected to HE staining. The stained sections were photographed by white light panoramic scanning, histopathological changes of the skin tissues and inflammatory cell infiltration were observed, and the number of melanin-containing hair follicles and/or the proportion of the melanin-containing hair follicles in the skin were quantitatively analyzed. The panoramic scanning files were opened by using CaseViewer software, a picture view with the length of about 3.8 mm was randomly selected, and the pictures were saved. The number of all the hair follicles and the number of the melanin-containing hair follicles in the picture were counted respectively by using ipwin32 software. The proportion of the melanin-containing hair follicles was calculated according to the following formula: Proportion of melanin-containing hair follicles = number of melanin-containing follicles/number of all follicles"}, "[4]": {"test_system": "imiquimod-induced C3H/HeJ mice alopecia areata model", "experiment": "Imiquimod-induced mouse alopecia areata model: hair growth", "format": "in vivo", "details": "for Hair growth rate (%): listed as test drug", "experimental": "• 1) Animals: female C3H/He mice, SPF, aged 6-8 weeks at grouping. The animals were provided by Beijing Viewsolid Biotech. • 2) Reagents, positive drugs and test drugs\nAfter one week of adaptive feeding of C3H/HeJ mice: modeling was performed by applying imiquimod ointment to the neck, 3 times a week. The mice were carefully taken out, and about 0.05 g of 5% imiquimod ointment was dipped with a clean medical cotton swab and then applied evenly to the skin on the neck over a range of about 1.5 cm×1.5 cm. Before each application, the local part was cleaned by normal saline to remove the residual drug in the previous time. The continuous administration time was no longer than 10 weeks. When alopecia areata with an area size > 1 cm×1 cm was formed at the administration part, the administration was stopped, proving that a preparation model was successful. The mice in the normal control group were modeled by using blank ointment (vaseline ointment).\nDuring the period from the first administration to the end of the last administration after the alopecia areata modeling was successful, the alopecia areata part of each mouse was photographed once every 3 days, the photographing distance, angle and magnification times were fixed, and the hair growth of the alopecic areas on the backs of the mice was recorded.\nVisual quantification of the alopecia area images was performed using ImageJ software. The hair growth area (a) and hair loss area (b) were calculated. The hair growth rate was counted and analyzed: hair growth rate (%) = (a/b)* 100%. The newly grown hairs at the alopecia areata part of the mice in each group were scored based on the hair growth rate. Table 14 Scoring criteria of newly grown hairs"}}, "note": "Values joined by “and” are separate entries in the source; they are usually repeats but may differ in a detail not shown here. Equal entries are not always repeated. Marks after values point to notes of the source that are not given here."}
{"smiles": "CN(c1ncnc2[nH]ccc12)[C@@H]1CCc2cc(C#N)nn2C1", "note": "[compound I]", "values": [{"measurement": "Enlargement of follicular orifice", "setting": "[1]; 1% gel", "value": "1.50 ± 0.17 and 1.50"}, {"measurement": "Enlargement of follicular orifice", "setting": "[1]; 2% gel", "value": "1.30 ± 0.26 and 1.30"}, {"measurement": "Hair depigmentation area scoring", "setting": "[2]; Day 0 (before administration), 0.5% compound I gel group", "value": 3.80}, {"measurement": "Hair depigmentation area scoring", "setting": "[2]; Day 0 (before administration), 1% compound I gel group", "value": 3.70}, {"measurement": "Hair depigmentation area scoring", "setting": "[2]; Day 0 (before administration), 2% compound I gel group", "value": 3.80}, {"measurement": "Hair depigmentation area scoring", "setting": "[2]; Day 10, 0.5% compound I gel, 30 mg topical twice a day", "value": "3.60 **"}, {"measurement": "Hair depigmentation area scoring", "setting": "[2]; Day 10, 1% compound I gel, 30 mg topical twice a day", "value": "3.90 **"}, {"measurement": "Hair depigmentation area scoring", "setting": "[2]; Day 10, 2% compound I gel, 30 mg topical twice a day", "value": "4.00 **"}, {"measurement": "Hair depigmentation area scoring", "setting": "[2]; Day 20, 0.5% compound I gel, 30 mg topical twice a day", "value": "3.60 **"}, {"measurement": "Hair depigmentation area scoring", "setting": "[2]; Day 20, 1% compound I gel, 30 mg topical twice a day", "value": "3.60 **"}, {"measurement": "Hair depigmentation area scoring", "setting": "[2]; Day 20, 2% compound I gel, 30 mg topical twice a day", "value": "3.50 **"}, {"measurement": "Hair depigmentation area scoring", "setting": "[2]; Day 30, 0.5% compound I gel, 30 mg topical twice a day", "value": "3.30 **"}, {"measurement": "Hair depigmentation area scoring", "setting": "[2]; Day 30, 1% compound I gel, 30 mg topical twice a day", "value": "3.40 **"}, {"measurement": "Hair depigmentation area scoring", "setting": "[2]; Day 30, 2% compound I gel, 30 mg topical twice a day", "value": "3.10 **"}, {"measurement": "Hair depigmentation area scoring", "setting": "[2]; Day 35, 0.5% compound I gel, 30 mg topical twice a day", "value": "3.20 **"}, {"measurement": "Hair depigmentation area scoring", "setting": "[2]; Day 35, 1% compound I gel, 30 mg topical twice a day", "value": "3.10 **"}, {"measurement": "Hair depigmentation area scoring", "setting": "[2]; Day 35, 2% compound I gel, 30 mg topical twice a day", "value": "2.90 **"}, {"measurement": "Hair depigmentation area scoring", "setting": "[2]; Day 38, 0.5% compound I gel, 30 mg topical twice a day", "value": "3.20 **"}, {"measurement": "Hair depigmentation area scoring", "setting": "[2]; Day 38, 1% compound I gel, 30 mg topical twice a day", "value": "2.90 **"}, {"measurement": "Hair depigmentation area scoring", "setting": "[2]; Day 38, 2% compound I gel, 30 mg topical twice a day", "value": "2.60 **"}, {"measurement": "Hair depigmentation area scoring", "setting": "[2]; Day 41, 0.5% compound I gel, 30 mg topical twice a day", "value": "2.90 **"}, {"measurement": "Hair depigmentation area scoring", "setting": "[2]; Day 41, 1% compound I gel, 30 mg topical twice a day", "value": "2.60 **"}, {"measurement": "Hair depigmentation area scoring", "setting": "[2]; Day 41, 2% compound I gel, 30 mg topical twice a day", "value": "2.30 **"}, {"measurement": "Hair depigmentation area scoring", "setting": "[2]; Day 44, 0.5% compound I gel, 30 mg topical twice a day", "value": "2.80 **"}, {"measurement": "Hair depigmentation area scoring", "setting": "[2]; Day 44, 1% compound I gel, 30 mg topical twice a day", "value": "2.50 **"}, {"measurement": "Hair depigmentation area scoring", "setting": "[2]; Day 44, 2% compound I gel, 30 mg topical twice a day", "value": "2.20 **"}, {"measurement": "Hair depigmentation area scoring", "setting": "[2]; Day 47, 0.5% compound I gel, 30 mg topical twice a day", "value": "2.60 **"}, {"measurement": "Hair depigmentation area scoring", "setting": "[2]; Day 47, 1% compound I gel, 30 mg topical twice a day", "value": "2.40 **"}, {"measurement": "Hair depigmentation area scoring", "setting": "[2]; Day 47, 2% compound I gel, 30 mg topical twice a day", "value": "2.20 **"}, {"measurement": "mean inhibitory rate of depigmentation area scores", "setting": "[2]; Day 50, 0.5% compound I gel, 30 mg (5 mg/cm^2), compared with the model control group", "value": 52.0, "unit": "%"}, {"measurement": "Hair depigmentation area scoring", "setting": "[2]; Day 50, 0.5% compound I gel, 30 mg topical twice a day", "value": "2.50 **"}, {"measurement": "mean inhibitory rate of depigmentation area scores", "setting": "[2]; Day 50, 1% compound I gel, 30 mg (5 mg/cm^2), compared with the model control group", "value": 54.9, "unit": "%"}, {"measurement": "Hair depigmentation area scoring", "setting": "[2]; Day 50, 1% compound I gel, 30 mg topical twice a day", "value": "2.30 **"}, {"measurement": "mean inhibitory rate of depigmentation area scores", "setting": "[2]; Day 50, 2% compound I gel, 30 mg (5 mg/cm^2), compared with the model control group", "value": 58.8, "unit": "%"}, {"measurement": "Hair depigmentation area scoring", "setting": "[2]; Day 50, 2% compound I gel, 30 mg topical twice a day", "value": "2.10 **"}, {"measurement": "mean inhibitory rate of depigmentation area scores", "setting": "[2]; day 50, high concentration (2%) compound I gel, compared with the blank preparation group", "value": 51.2, "unit": "%"}, {"measurement": "mean inhibitory rate of depigmentation area scores", "setting": "[2]; day 50, low concentration (0.5%) compound I gel, compared with the blank preparation group", "value": 41.9, "unit": "%"}, {"measurement": "mean inhibitory rate of depigmentation area scores", "setting": "[2]; day 50, medium concentration (1%) compound I gel, compared with the blank preparation group", "value": 46.5, "unit": "%"}, {"measurement": "therapeutic effect (comparison)", "setting": "[3]; 1% and 2% compound I gel, reduction of melanin-containing hair follicles in vitiligo model", "value": "equivalent to that of 1.5% ruxolitinib and superior to that of 0.03% tacrolimus"}, {"measurement": "Number of melanin-containing hair follicles", "setting": "[3]; 1% compound I gel", "value": 30.3}, {"measurement": "Proportion of melanin-containing hair follicles (%)", "setting": "[3]; 1% compound I gel", "value": "29.7 ± 9.1% and 29.7%"}, {"measurement": "Number of melanin-containing hair follicles", "setting": "[3]; 1% compound I gel, listed as Compound I", "value": "30.3 ± 14.8"}, {"measurement": "number of the melanin-containing hair follicles, increase compared to the blank preparation group", "setting": "[3]; 2% compound I gel", "value": 37.9, "unit": "%"}, {"measurement": "number of the melanin-containing hair follicles, times that of the model control group", "setting": "[3]; 2% compound I gel", "value": "about 4 times"}, {"measurement": "proportion of the melanin-containing hair follicles relative to the model control group", "setting": "[3]; 2% compound I gel", "value": "about twice"}, {"measurement": "Number of melanin-containing hair follicles", "setting": "[3]; 2% compound I gel", "value": "26.9*"}, {"measurement": "Proportion of melanin-containing hair follicles (%)", "setting": "[3]; 2% compound I gel", "value": "30.6 ± 6.2% and 30.6%"}, {"measurement": "Number of melanin-containing hair follicles", "setting": "[3]; 2% compound I gel, listed as Compound I", "value": "26.9 ± 7.4"}, {"measurement": "therapeutic effect (comparison)", "setting": "[3]; 2% compound I gel, proportion of melanin-containing hair follicles", "value": "equivalent to that of the ruxolitinib ointment"}, {"measurement": "Hair growth rate (%)", "setting": "[4]; 3 mg/kg oral by gavage twice a day for one month, Day 30", "value": "71.62 ± 5.56", "unit": "%"}, {"measurement": "amelioration effect (comparison)", "setting": "[4]; 3 mg/kg oral, hair growth at alopecic area, Day 30", "value": "equivalent to that of the positive control drug at the dose of 10 mg/kg"}, {"measurement": "Hair growth rate (%)", "setting": "[4]; 10 mg/kg oral by gavage twice a day for one month, Day 30", "value": "83.93 ± 5.58", "unit": "%"}, {"measurement": "therapeutic effect (comparison)", "setting": "[4]; mouse alopecia areata model, oral", "value": "superior to that of the positive drug baricitinib"}]}
